Where a name gives a salt, the structure may show the parent alone.
Columns and labels:
[1] = In vitro timolol release from drug-loaded contact lenses into PBS, fitted to Fick's diffusion (perfect sink) model; format: physicochemical
Description: After drug loading, the lenses were removed from the timolol maleate solution and gently wiped with KimWipe to remove the excess solution remaining on the surface. Each lens was then placed in 3 mL of fresh PBS solution for in vitro drug release. The optical absorption spectra of the release media were measured by the same spectrophotometer used in Example 2. The concentration of the timolol in the release medium was determined by fitting the optical absorption spectra in the range of 260 to 340 nm with the calibration spectrum of timolol maleate using MATLAB's minimization of least square error method. The drug release profiles were fitted using a perfect sink model to determine drug diffusivity. By solving the Fick's law diffusion equation, the mass percent of the drug released as a function of time is given by […] To further investigate this effect, the diffusion coefficients of timolol in the lenses were calculated by fitting the release curves to Fick's diffusion equation as described above. […] As Table 5 illustrates, the diffusion coefficients of timolol from these lenses are about a third of the diffusion coefficient from control (blank/unloaded) lenses (circular data points in FIG. 5), which results in extension of release by about 10 hours.

[2] = Partition coefficient of timolol maleate between contact lens and loading solution; format: physicochemical
Description: Timolol maleate was dissolved in PBS to prepare a 1.5 mg/mL solution. Each hydrated contact lens (both blank and vitamin E-loaded) was placed in 3 mL of this solution for 7 days to load the drug in the lenses.
The partition coefficient K of the drug is defined as the ratio of the concentration of the drug in the lens to the concentration of the drug in the medium when equilibrium is reached during the drug loading process. […] The concentration in the lens after 7 days of loading can be determined by dividing the total mass of the drug in the lens by the volume, and the mass of the drug can be determined from the release data based on the assumption that 100% of the drug is released due to the large volume of release medium compared to the lens volume. Therefore, the partition coefficient K is calculated as
where Clens and Cloading are the concentration of the drug in the lens and the loading solution at equilibrium, respectively, Vrelease and Vlens are the volume of the release medium and the contact lens, respectively, and Crelease is the final concentration of the drug in the release medium.

[3] = lens with 0 wt % vitamin E (blank), solvent n/a
[4] = lens with 8.4 wt % vitamin E, loaded from pure EtOH
[5] = lens with 8.6 wt % vitamin E, loaded from 75:25 EtOH:H2O
[6] = lens with 9.3 wt % vitamin E, loaded from 85:15 EtOH:H2O
[7] = lens with 19.3 wt % vitamin E, loaded from pure EtOH
[8] = lens with 19.9 wt % vitamin E, loaded from 85:15 EtOH:H2O
[9] = lenses with vitamin E loads of 8 to 10 wt %

SMILES: CC(C)(C)NC[C@H](O)COc1nsnc1N1CCOCC1 [timolol maleate, Timolol maleate]
- D, diffusion coefficient of timolol maleate from contact lens [1, 3]: 2.04 · 10^−13 ± 0 m^2/s
- D, diffusion coefficient of timolol maleate from contact lens [1, 4]: (7.42 ± 1.49) · 10^−14 m^2/s
- D, diffusion coefficient of timolol maleate from contact lens [1, 5]: (6.20 ± 0.329) · 10^−14 m^2/s
- D, diffusion coefficient of timolol maleate from contact lens [1, 6]: 5.09 · 10^−14 ± 0 m^2/s
- D, diffusion coefficient of timolol maleate from contact lens [1, 7]: (1.62 ± 0.219) · 10^−14 m^2/s
- D, diffusion coefficient of timolol maleate from contact lens [1, 8]: (13.2 ± 0.936) · 10^−15 m^2/s
- diffusion coefficient of timolol relative to control (blank/unloaded) lenses [1, 9]: about a third
- extension of timolol release versus control (blank) lenses [1, 9]: about 10 hours
- timolol release time ([1]; lenses with vitamin E loads of 8 to 10 wt %, made from different loading solutions): about 12 hours
- duration of timolol release ([1]; lenses with vitamin E loads of 19 to 20 wt %, two different solutions): more than 70 hours
- duration of release of timolol from the lens ([1]; vitamin E loads of about 10 wt %): about 10 hours
- duration of release of timolol from the lens ([1]; vitamin E loads of about 20 wt %): about 70 hours
- K, partition coefficient of timolol maleate in contact lens [2, 3]: 0.7125 ± 0.0168
- K, partition coefficient of timolol maleate in contact lens [2, 4]: 0.6050 ± 0.0171
- K, partition coefficient of timolol maleate in contact lens [2, 5]: 0.6757 ± 0.0152
- K, partition coefficient of timolol maleate in contact lens [2, 6]: 0.7969 ± 0.0242
- K, partition coefficient of timolol maleate in contact lens [2, 7]: 0.5739 ± 0.0069
- K, partition coefficient of timolol maleate in contact lens [2, 8]: 0.6108 ± 0.0489
